# Marks after values point to notes of the source that are not given here. Non-standard residues stand in square brackets, D forms with d. Residues, ends and D or L forms follow the SMILES beside them. d2Nal = N[C@H](Cc1ccc2ccccc2c1)C(=O)O
# Legend:
# [1] = system: Candida albicans ATCC MYA-2876; assay type: cell-based
# Method in brief: (§1)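 The assay follows US Clinical and Laboratory Standards Institute rules: a serial twofold microdilution of each peptide against each organism gives the MIC. Experiments were carried out five times side by side.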
# Candida krusei ATCC 6258 = assay type: cell-based
# Method in brief: as §1
# [2] = system: Candida tropicalis ATCC 750; assay type: cell-based
# Method in brief: as §1
# [3] = system: Corynebacterium ATCC 7715; assay type: cell-based
# Method in brief: as §1
# Enterococcus ATCC 29212 = assay type: cell-based
# Method in brief: as §1
# [4] = system: Escherichia coli ATCC 25922; assay type: cell-based
# Method in brief: as §1
# [5] = system: Klebsiella pneumoniae ATCC 700603; assay type: cell-based
# Method in brief: as §1
# [6] = system: Pseudomonas aeruginosa ATCC 27853; assay type: cell-based
# Method in brief: as §1
# [7] = system: Serratia marcescens ATCC 29021; assay type: cell-based
# Method in brief: as §1
# [8] = system: Trichophyton ATCC MYA-4438; assay type: cell-based
# Method in brief: as §1
# [9] = system: Shigella flexneri ATCC 12022; test: MIC against clinically common bacterial strain; assay type: cell-based
# Method in brief: as §1
# [10] = system: Methicillin-resistant Staphylococcus aureus (MRSA); assay type: cell-based; details: Methicillin-resistant
# Method in brief: (§2)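 Broth serial twofold dilution per CLSI standards, run 5 times in parallel, gave MIC values for the peptides against clinically common resistant strains.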
# [11] = system: carbapenem-resistant Escherichia coli (CREC); assay type: cell-based; details: carbapenem-resistant (CREC)
# Method in brief: as §2
# [12] = system: carbapenem-resistant Klebsiella pneumoniae (CRKP); assay type: cell-based; details: carbapenem-resistant (CRKP)
# Method in brief: as §2
# [13] = system: carbapenem-resistant Pseudomonas aeruginosa (CRPA); assay type: cell-based; details: carbapenem-resistant (CRPA)
# Method in brief: as §2
# [14] = system: vancomycin-resistant Enterococcus (VRE); assay type: cell-based
# Method in brief: as §2
# [15] = system: Staphylococcus aureus (NRS 384); details: NRS 384, 3 h
# Protocol: Trypsin (250 U/mg, pH=8.0) and AMPs (LV-1 to LV-30) were mixed in a ratio of 1:10 (w/w) and added to a reaction buffer (0.2 M sodium phosphate, 1 mM CaCl2), pH 7.5), and then incubated at 37° C. for 3 h.
# [16] = system: Pseudomonas aeruginosa ATCC 27853; test: Injectable formulations on mice infected with peritonitis; assay type: in vivo, ICR mice; details: twice a day for 3 days; for Number of mice that died on each day after infection: day 1 / Number of mice that died on each day after infection: day 2 / Number of mice that died on each day after infection: day 3 / Number of mice that died on each day after infection: day 4 / Number of mice that died on each day after infection: day 5 / Average survival times (Days): n = 10; for Average survival times (Days): observed for 14 d
# Method in brief: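 Survival readout: deaths and survival time tracked for 14 d. Treatment was tail-vein injection by body weight, twice a day for 3 consecutive days, starting right after intraperitoneal challenge with 0.2 mL of 1×10^9 CFU/mL P. aeruginosa ATCC 27853 in male and female ICR mice.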
# [17] = system: Escherichia coli ATCC 25922; test: Oral formulations on mice with systemic bacterial infection; assay type: in vivo, ICR mice; details: three times a day for 7 days; for Number of mice that died on each day after infection: day 4 / Number of mice that died on each day after infection: day 5 / Number of mice that died on each day after infection: day 6 / Number of mice that died on each day after infection: day 7 / Number of mice that died on each day after infection: day 8 / Average survival times (Days): n = 10; for Average survival times (Days): observed for 14 d
# Method in brief: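 Survival time and deaths were logged over a 14 d observation after oral gavage dosing (by body weight, thrice daily, 7 days, starting right after infection). Model: mixed-sex ICR mice, n=10 per group, intraperitoneal injection of E. coli ATCC 25922 suspension (0.2 mL, 1×10^7 CFU/mL).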
compound,measurement,setting,value
CC(=O)N[C@H](CCCCN)C(=O)N[C@H](CCCCN)C(=O)N[C@H](CC(C)C)C(=O)N[C@H](CC(C)C)C(=O)N[C@H](Cc1ccc2ccccc2c1)C(=O)N[C@H](CCCCN)C(=O)N[C@H](CC(C)C)C(=O)N[C@H](CCCCN)C(=O)N[C@H](Cc1ccc2ccccc2c1)C(=O)N[C@H](CCCCN)C(=O)N[C@H](CCCCN)C(N)=O [LV-17] (Ac-[dK][dK][dL][dL][d2Nal][dK][dL][dK][d2Nal][dK][dK]-NH2),MIC Candida albicans ATCC MYA-2876,[1],8 mg/L
same,MIC Candida krusei ATCC 6258,Candida krusei ATCC 6258,8 mg/L
same,MIC Candida tropicalis ATCC 750,[2],8 mg/L
same,MIC Corynebacterium ATCC 7715,[3],2 mg/L
same,MIC Enterococcus ATCC 29212,Enterococcus ATCC 29212,2 mg/L
same,MIC Escherichia coli ATCC 25922,[4],1 mg/L
same,MIC Klebsiella pneumoniae ATCC 700603,[5],4 mg/L
same,MIC Pseudomonas aeruginosa ATCC 27853,[6],1 mg/L
same,MIC Serratia marcescens ATCC 29021,[7],2 mg/L
same,MIC Trichophyton ATCC MYA-4438,[8],8 mg/L
same,MIC Shigella flexneri ATCC 12022,[9],4 mg/L
same,MIC MRSA,[10],8 mg/L
same,MIC CREC,[11],4 mg/L
same,MIC CRKP,[12],4 mg/L
same,MIC CRPA,[13],4 mg/L
same,MIC VRE,[14],8 mg/L
same,Trypsin MIC,[15],1 mg/L
same,Number of mice that died on each day after infection: day 1,[16]; 0.2 mg/kg via tail vein,1 Mouse
same,Number of mice that died on each day after infection: day 2,[16]; 0.2 mg/kg via tail vein,2 Mouse
same,Number of mice that died on each day after infection: day 3,[16]; 0.2 mg/kg via tail vein,1 Mouse
same,Number of mice that died on each day after infection: day 4,[16]; 0.2 mg/kg via tail vein,1 Mouse
same,Number of mice that died on each day after infection: day 5,[16]; 0.2 mg/kg via tail vein,1 Mouse
same,Average survival times (Days),[16]; 0.2 mg/kg via tail vein,7.3** Days
same,Number of mice that died on each day after infection: day 1,[16]; 1 mg/kg via tail vein,0 Mouse
same,Number of mice that died on each day after infection: day 2,[16]; 1 mg/kg via tail vein,2 Mouse
same,Number of mice that died on each day after infection: day 3,[16]; 1 mg/kg via tail vein,0 Mouse
same,Number of mice that died on each day after infection: day 4,[16]; 1 mg/kg via tail vein,1 Mouse
same,Number of mice that died on each day after infection: day 5,[16]; 1 mg/kg via tail vein,0 Mouse
same,Average survival times (Days),[16]; 1 mg/kg via tail vein,10.6**** Days
same,Number of mice that died on each day after infection: day 1,[16]; 5 mg/kg via tail vein,0 Mouse
same,Number of mice that died on each day after infection: day 2,[16]; 5 mg/kg via tail vein,2 Mouse
same,Number of mice that died on each day after infection: day 3,[16]; 5 mg/kg via tail vein,1 Mouse
same,Number of mice that died on each day after infection: day 4,[16]; 5 mg/kg via tail vein,1 Mouse
same,Number of mice that died on each day after infection: day 5,[16]; 5 mg/kg via tail vein,0 Mouse
same,Average survival times (Days),[16]; 5 mg/kg via tail vein,9.5*** Days
same,survival time of mice infected with Pseudomonas aeruginosa,"[16]; tail vein, observed 14 d",superior to those of the Levofloxacin group
same,Number of mice that died on each day after infection: day 4,[17]; 0.2 mg/kg gavage,1 Mouse
same,Number of mice that died on each day after infection: day 5,[17]; 0.2 mg/kg gavage,2 Mouse
same,Number of mice that died on each day after infection: day 6,[17]; 0.2 mg/kg gavage,1 Mouse
same,Number of mice that died on each day after infection: day 7,[17]; 0.2 mg/kg gavage,1 Mouse
same,Number of mice that died on each day after infection: day 8,[17]; 0.2 mg/kg gavage,2 Mouse
same,Average survival times (Days),[17]; 0.2 mg/kg gavage,8.5** Days
same,Number of mice that died on each day after infection: day 4,[17]; 1 mg/kg gavage,1 Mouse
same,Number of mice that died on each day after infection: day 5,[17]; 1 mg/kg gavage,0 Mouse
same,Number of mice that died on each day after infection: day 6,[17]; 1 mg/kg gavage,2 Mouse
same,Number of mice that died on each day after infection: day 7,[17]; 1 mg/kg gavage,1 Mouse
same,Number of mice that died on each day after infection: day 8,[17]; 1 mg/kg gavage,0 Mouse
same,Average survival times (Days),[17]; 1 mg/kg gavage,10.7*** Days
same,Number of mice that died on each day after infection: day 4,[17]; 5 mg/kg gavage,2 Mouse
same,Number of mice that died on each day after infection: day 5,[17]; 5 mg/kg gavage,1 Mouse
same,Number of mice that died on each day after infection: day 6,[17]; 5 mg/kg gavage,0 Mouse
same,Number of mice that died on each day after infection: day 7,[17]; 5 mg/kg gavage,1 Mouse
same,Number of mice that died on each day after infection: day 8,[17]; 5 mg/kg gavage,1 Mouse
same,Average survival times (Days),[17]; 5 mg/kg gavage,9.8** Days
same,survival time of mice infected with Escherichia coli,"[17]; gavage, observed 14 d",superior to those of the Levofloxacin group
